According to the NIST ThermoML archive (doi:10.1021/je700521t):
± gives the expanded uncertainty stated by the source.

Columns and labels:
[1] = 101.33 kPa, Liquid; for viscosity: Falling or rolling sphere viscometry
[2] = refractive index (Na D-line) (dimensionless); conditions: 101.33 kPa, Liquid

CCCCn1cc[n+](C)c1.[O-][Cl+3]([O-])([O-])[O-] [1-butyl-3-methylimidazolium perchlorate]
Conditions	refractive index, [2]	viscosity, [1] [mPa·s]
283.15 K	1.4763 ± 0.0012	466.36 ± 37
288.15 K	1.4751 ± 0.0012	330.8 ± 23
293.15 K	1.474 ± 0.0012	241.56 ± 14
298.15 K	1.4725 ± 0.0012	180.26 ± 9.5
303.15 K	1.4712 ± 0.0012	137.85 ± 7
308.15 K	1.4696 ± 0.0012	107.28 ± 5.5
313.15 K	1.4685 ± 0.0012	85.75 ± 4.8
318.15 K	1.4667 ± 0.0012	69.52 ± 4.5
323.15 K	1.4655 ± 0.0012	57.22 ± 4.3
328.15 K	1.4642 ± 0.0012	47.78 ± 4.2
333.15 K	1.4627 ± 0.0012	39.9 ± 4.1
338.15 K	1.4615 ± 0.0012	34.14 ± 4.1
343.15 K	1.4602 ± 0.0012	29.49 ± 4.1
348.15 K	1.459 ± 0.0012	25.74 ± 4.1
353.15 K	1.4577 ± 0.0012	22.64 ± 4

[1], Vibrating tube method
Conditions	mass density [kg/m3]
283.15 K	1263.5 ± 8.7
288.15 K	1259.9 ± 8.6
293.15 K	1256.2 ± 8.6
298.15 K	1252.7 ± 8.5
303.15 K	1249.2 ± 8.5
308.15 K	1245.7 ± 8.5
313.15 K	1242.2 ± 8.4
318.15 K	1238.8 ± 8.4
323.15 K	1235.3 ± 8.3
328.15 K	1231.9 ± 8.3
333.15 K	1228.4 ± 8.2
338.15 K	1225 ± 8.2
343.15 K	1221.6 ± 8.1
348.15 K	1218.2 ± 8.1
353.15 K	1214.8 ± 8

CCCCCCCC[n+]1ccn(C)c1.F[B-](F)(F)F [1-methyl-3-octylimidazolium tetrafluoroborate]
Conditions	mass density, [1] [kg/m3]	refractive index, [2]	viscosity, [1] [mPa·s]
283.15 K	1124.9 ± 1.7	1.4363 ± 0.0008	1037 ± 110
288.15 K	1121.4 ± 1.7	1.435 ± 0.0008	718.75 ± 66
293.15 K	1117.9 ± 1.6	1.4336 ± 0.0008	462.9 ± 36
298.15 K	1114.4 ± 1.6	1.4322 ± 0.0008	334.17 ± 22
303.15 K	1110.9 ± 1.6	1.431 ± 0.0008	246.18 ± 14
308.15 K	1107.5 ± 1.6	1.4288 ± 0.0008	191.95 ± 9.3
313.15 K	1104.1 ± 1.6	1.4271 ± 0.0008	147.92 ± 6.7
318.15 K	1100.7 ± 1.5	1.426 ± 0.0008	116.38 ± 5.3
323.15 K	1097.3 ± 1.5	1.425 ± 0.0008	91.95 ± 4.5
328.15 K	1093.9 ± 1.5	1.4235 ± 0.0008	74.79 ± 4.2
333.15 K	1090.6 ± 1.5	1.4222 ± 0.0008	60.95 ± 4.1
338.15 K	1087.2 ± 1.5	1.421 ± 0.0008	50.88 ± 4
343.15 K	1083.9 ± 1.5	1.4195 ± 0.0008	42.06 ± 4
348.15 K	1080.5 ± 1.5	1.418 ± 0.0008	35.78 ± 4
353.15 K	1077.2 ± 1.4	1.4167 ± 0.0008	30.11 ± 4
358.15 K	1073.8 ± 1.4	1.4155 ± 0.0008	25.87 ± 4
363.15 K	1070.5 ± 1.4	1.4142 ± 0.0008	21.57 ± 4
